Measured values published in patent US11040034B2 (priority 2016, dated 2021).
Read-outs that look alike come from different tables or passages of the source.

What was measured:
[1] = cynomolgus monkey liver microsomes
[2] = rat liver microsomes

CCS(=O)(=O)NCc1cc(-c2nc3cc(F)c(F)cc3n2C2CC2)cnn1 [Example 52, N-((5-(1-Cyclopropyl-5,6-difluoro-1H-benzo[d]imidazol-2-yl)pyridazin-3-yl)methyl)ethanesulfonamide]
metabolic stability in comparison to comparison example [1]: greater metabolic stability | metabolic stability in comparison to comparison example [2]: greater metabolic stability
